Laboratory results: ChEMBL document CHEMBL4340564, “Quercetin-3-oleoyl derivatives as new GPR40 agonists: Molecular docking studies and functional evaluation” (Bioorg Med Chem Lett, 2019)
Active and inactive are the calls of the source. The rule behind the calls is not given here.

How the values were obtained:
Assay type in all cases: cell-based
[1] = target: Free fatty acid receptor 1 (Homo sapiens) (UniProt O14842); test: Agonist activity at human GPR40 expressed in rat INS1(832/13) cells harboring human proinsulin assessed as increase in glucose-stimulated insulin secretion at 20 to 40 uM incubated for 5 mins by ELISA
[2] = target: Free fatty acid receptor 1 (Homo sapiens) (UniProt O14842); test: Agonist activity at human GPR40 expressed in rat INS1(832/13) cells harboring human proinsulin assessed as increase in glucose-stimulated insulin secretion at 10 uM incubated for 5 mins in presence of GPR40 antagonist DC260126 by ELISA
[3] = target: Free fatty acid receptor 1 (Homo sapiens) (UniProt O14842); test: Agonist activity at human GPR40 expressed in rat INS1(832/13) cells harboring human proinsulin assessed as increase in glucose-stimulated insulin secretion at 40 uM incubated for 5 mins in presence of GPR40 antagonist DC260126 by ELISA
[4] = target: Free fatty acid receptor 1 (Homo sapiens) (UniProt O14842); test: Partial agonist activity at human GPR40 expressed in rat INS1(832/13) cells harboring human proinsulin assessed as potentiation of 2.5 uM AV1-induced increase in glucose-stimulated insulin secretion at 40 uM by ELISA
[5] = target: Free fatty acid receptor 1 (Homo sapiens) (UniProt O14842); test: Partial agonist activity at human GPR40 expressed in rat INS1(832/13) cells harboring human proinsulin assessed as potentiation of 2.5 uM AV1-induced increase in glucose-stimulated insulin secretion at 21 uM by ELISA
[6] = target: Free fatty acid receptor 1 (Homo sapiens) (UniProt O14842); test: Antagonist activity at human GPR40 expressed in rat INS1(832/13) cells harboring human proinsulin assessed as inhibition of 20 uM AV1-induced increase in glucose-stimulated insulin secretion at 40 uM by ELISA
[7] = target: Free fatty acid receptor 1 (Homo sapiens) (UniProt O14842); test: Antagonist activity at human GPR40 expressed in rat INS1(832/13) cells harboring human proinsulin assessed as inhibition of 20 uM AV1-induced increase in glucose-stimulated insulin secretion at 21 uM by ELISA
[8] = target: Free fatty acid receptor 1 (Homo sapiens) (UniProt O14842); test: Partial agonist activity at human GPR40 expressed in rat INS1(832/13) cells harboring human proinsulin assessed as potentiation of 10 uM AV1-induced increase in glucose-stimulated insulin secretion by ELISA

Sequence of Free fatty acid receptor 1 (Homo sapiens) (O14842 whole entry): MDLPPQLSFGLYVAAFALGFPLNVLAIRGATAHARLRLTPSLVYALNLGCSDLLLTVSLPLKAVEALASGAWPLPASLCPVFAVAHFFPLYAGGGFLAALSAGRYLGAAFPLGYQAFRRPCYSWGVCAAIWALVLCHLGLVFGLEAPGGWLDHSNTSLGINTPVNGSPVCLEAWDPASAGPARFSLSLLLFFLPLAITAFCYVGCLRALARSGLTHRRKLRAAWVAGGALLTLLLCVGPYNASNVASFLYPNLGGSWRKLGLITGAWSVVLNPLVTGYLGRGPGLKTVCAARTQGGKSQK

Activity [1]	Activity [2]	Activity [3]	Activity [4]	Activity [5]	Activity [6]	Activity [7]	Activity [8]	Compound
Active	inactive	–	–	–	–	–	–	CCCCCCCC/C=C\CCCCCCCC(=O)Oc1c(-c2ccc3c(c2)OC(c2ccccc2)(c2ccccc2)O3)oc2cc(O)cc(O)c2c1=O
Active	–	inactive	Active	Active	Active	Active	Dose-dependent effect	CCCCCCCC/C=C\CCCCCCCC(=O)Oc1c(-c2ccc(O)c(O)c2)oc2cc(O)cc(O)c2c1=O
